Where “and” joins values, the source holds several entries; their conditions need not be identical. Equal entries are not always repeated. Where two headings read alike, the source gives them in different places.
Key:
CB1 (rCB1) [1] = molecular target: T1, CB1 (rCB1) (Rattus norvegicus, UniProt P20272); assay: Single-point radioligand displacement screen; assay type: binding
hCB1 [2] = molecular target: T2, hCB1 (Homo sapiens, UniProt P21554); assay: Lance Ultra cAMP accumulation assay, CHO cells; assay type: cell-based; set-up: expressed in transfected cells; settings: for cAMP assay signal, concentration-response point: replicates, sheet FigureS2a; for normalised cAMP response, concentration-response (Figure2f), replicate values: log[Compound;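 as to all read-outs here: human CB1R stably expressed in CHO cells, ligands co-incubated with forskolin at room temperature, read-out is lowering of forskolin-stimulated cAMP accumulation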
Experimental: The inhibition of forskolin-stimulated cAMP accumulation assays was carried out using PerkinElmer’s Lance Ultra cAMP kit following the manufacturer’s protocol. In brief, CHO cells stably expressing human CB1R (provided by the lab of Laura Bohn) were harvested by incubation with Versene (ThermoFisher Scientific, Waltham, MA) for 10 min, washed once with Hank’s Balanced Salt Solution, and resuspended in stimulation buffer at ~200 cells/μL density. The ligands at eight different concentrations (0.001-10,000 nM) in stimulation buffer (5 μL) containing forskolin (2 μM final concentration) were added to a 384-well plate followed by the cell suspension (5 μL; ~1000 cells/well). The plate was incubated for 30 min at room temperature. Eu-cAMP tracer (5 μL) and Ulight-anti-cAMP (5 μL) working solutions were then added to each well, and the plate was incubated at room temperature for an additional 60 min. Results were measured on a Perkin-Elmer EnVision plate reader. The EC50 values were determined by nonlinear regression analysis using Graphpad Prism 9 and are expressed as the mean of three experiments, each performed in triplicate.

hCB1 [3] = molecular target: T2, hCB1; assay: bioSensAll ebBRET signaling profiling, hCB1; assay type: cell-based; set-up: host or cells: HEK293SL cells, transient PEI transfection; settings: for Gi1 hCB1 response: Gi1 biosensor; for Gi1 hCB1 / GoB hCB1: single replicate values, FigS6a; for EC50: read-out: EC50 [95% CI]; for Emax: normalized to CP-55,940
CB1 (rCB1) [4] = molecular target: T1, CB1 (rCB1); assay: Radioligand competition binding, [3H]-CP-55,940, rat brain membranes

T1 sequence (P20272 whole entry): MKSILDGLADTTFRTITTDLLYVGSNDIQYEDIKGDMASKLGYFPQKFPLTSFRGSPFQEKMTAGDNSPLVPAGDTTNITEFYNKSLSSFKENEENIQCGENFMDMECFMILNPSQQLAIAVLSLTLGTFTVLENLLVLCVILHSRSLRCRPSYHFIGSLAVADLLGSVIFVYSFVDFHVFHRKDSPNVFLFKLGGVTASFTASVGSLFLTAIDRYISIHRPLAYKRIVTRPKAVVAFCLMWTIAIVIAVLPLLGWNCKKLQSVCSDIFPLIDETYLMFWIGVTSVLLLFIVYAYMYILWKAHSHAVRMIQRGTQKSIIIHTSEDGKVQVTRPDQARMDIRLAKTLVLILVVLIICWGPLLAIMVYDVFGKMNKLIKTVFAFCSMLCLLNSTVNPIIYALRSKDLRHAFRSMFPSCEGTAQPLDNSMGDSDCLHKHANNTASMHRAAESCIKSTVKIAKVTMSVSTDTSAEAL
T2 sequence (P21554 whole entry): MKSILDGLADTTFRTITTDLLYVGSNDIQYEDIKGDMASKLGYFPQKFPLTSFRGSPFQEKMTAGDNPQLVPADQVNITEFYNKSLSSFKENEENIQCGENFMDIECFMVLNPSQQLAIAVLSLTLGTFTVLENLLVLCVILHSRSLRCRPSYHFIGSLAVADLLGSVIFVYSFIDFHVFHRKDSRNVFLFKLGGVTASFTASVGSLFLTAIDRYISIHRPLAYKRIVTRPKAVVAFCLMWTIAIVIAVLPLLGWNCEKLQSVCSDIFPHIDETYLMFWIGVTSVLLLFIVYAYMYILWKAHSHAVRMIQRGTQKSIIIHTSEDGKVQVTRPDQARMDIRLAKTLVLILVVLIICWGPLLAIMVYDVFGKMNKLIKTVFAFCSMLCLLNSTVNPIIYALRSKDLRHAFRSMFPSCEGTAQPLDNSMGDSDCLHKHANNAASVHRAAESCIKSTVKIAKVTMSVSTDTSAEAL

SMILES: COC(=O)C(NC(=O)c1cc(C)n(-c2cccc(F)c2)n1)c1cccs1 (centres unmarked) [‘51486]
- % 1H-CP-55,940 displacement (mean) from single point screen (CB1 (rCB1) [1]; 10 µM, 1 µM or 300 nM by cell colour (not visible)): 90.60%
- rep1_displacement (CB1 (rCB1) [1]; Figure 1c source data, replicate 1): 90.6
- cAMP assay signal, concentration-response point (hCB1 [2]; compound 0.01 nM): 0.003086 and 0.002857 and 0.002584
- cAMP assay signal, concentration-response point (hCB1 [2]; compound 0.1 nM): 0.003236 and 0.002959 and 0.003953*
- cAMP assay signal, concentration-response point (hCB1 [2]; compound 1 nM): 0.003012 and 0.002545 and 0.00241
- cAMP assay signal, concentration-response point (hCB1 [2]; compound 10 nM): 0.003401 and 0.002801 and 0.00274
- cAMP assay signal, concentration-response point (hCB1 [2]; compound 100 nM): 0.002632 and 0.003106 and 0.002457
- cAMP assay signal, concentration-response point (hCB1 [2]; compound 1000 nM): 0.002532 and 0.002088 and 0.00216
- cAMP assay signal, concentration-response point (hCB1 [2]; compound 10000 nM): 0.001565 and 0.001538 and 0.001686
- cAMP assay signal, concentration-response point (hCB1 [2]; compound 100000 nM): 0.001247 and 0.001041 and 0.0009747
- agonism, inhibition of forskolin-stimulated cAMP (hCB1 [2]; hCB1-expressing cells, in words): modest agonism
- normalised cAMP response, concentration-response (Figure2f), replicate values (hCB1 [2]; M] -5): 61.1478 and 37.2808 and 60.3783 and 74.6524
- normalised cAMP response, concentration-response (Figure2f), replicate values (hCB1 [2]; M] -6): 88.8547 and 72.8445 and 99.0012 and 98.4034
- normalised cAMP response, concentration-response (Figure2f), replicate values (hCB1 [2]; M] -7): 93.8057 and 91.7167 and 95.78 and 96.566
- normalised cAMP response, concentration-response (Figure2f), replicate values (hCB1 [2]; M] -8): 85.2922 and 84.747 and 110.313 and 100.436
- normalised cAMP response, concentration-response (Figure2f), replicate values (hCB1 [2]; M] -9): 104.899 and 94.89 and 101.982 and 109.312
- normalised cAMP response, concentration-response (Figure2f), replicate values (hCB1 [2]; M] -10): 98.9432 and 97.9859 and 99.2252 and 102.121
- normalised cAMP response, concentration-response (Figure2f), replicate values (hCB1 [2]; M] -11): 94.0694 and 79.1039 and 104.119 and 97.9362
- normalised cAMP response, concentration-response (Figure2f), replicate values (hCB1 [2]; M] -12): 99.9579 and 92.8829 and 101.899 and 97.9047
- Gi1 hCB1 response (hCB1 [3]; Log [Compound] (M) -4.22186): 123.512
- Gi1 hCB1 response (hCB1 [3]; Log [Compound] (M) -4.63927): 98.3102
- Gi1 hCB1 response (hCB1 [3]; Log [Compound] (M) -5.05788): 74.9216
- Gi1 hCB1 response (hCB1 [3]; Log [Compound] (M) -5.47381): 77.764
- Gi1 hCB1 response (hCB1 [3]; Log [Compound] (M) -5.89285): 72.6387
- Gi1 hCB1 response (hCB1 [3]; Log [Compound] (M) -6.31878): 38.0146
- Gi1 hCB1 response (hCB1 [3]; Log [Compound] (M) -6.72585): 33.2921
- Gi1 hCB1 response (hCB1 [3]; Log [Compound] (M) -7.14267): -1.511
- Gi1 hCB1 response (hCB1 [3]; Log [Compound] (M) -7.55284): -15.3428
- Gi1 hCB1 response (hCB1 [3]; Log [Compound] (M) -8): 9.7692
- Gi1 hCB1 response (hCB1 [3]; Log [Compound] (M) -8.22186): 0.839
- Gi1 hCB1 response (hCB1 [3]; Log [Compound] (M) -8.39794): -12.3884
- Gi1 hCB1 response (hCB1 [3]; Log [Compound] (M) -8.68787): 2.204
- Gi1 hCB1 response (hCB1 [3]; Log [Compound] (M) -9.15521): -11.247
- Gi1 hCB1 response (hCB1 [3]; Log [Compound] (M) -9.61989): -13.1718
- Gi1 hCB1 response (hCB1 [3]; Log [Compound] (M) -10.0969): -6.323
- Gi1 hCB1 response (hCB1 [3]; Log [Compound] (M) -10.5529): -17.8943
- Gi1 hCB1 response (hCB1 [3]; Log [Compound] (M) -11.0177): -4.935
- Gi1 hCB1 response (hCB1 [3]; Log [Compound] (M) -11.4949): -5.54
- Gi1 hCB1 response (hCB1 [3]; Log [Compound] (M) -11.9208): -6.838
- Gi1 hCB1 response (hCB1 [3]; Log [Compound] (M) -12.3979): -1.466
- Gi1 hCB1 response (hCB1 [3]; Log [Compound] (M) -12.8861): -7.42
- Gi1 hCB1 response (hCB1 [3]; Log [Compound] (M) -13, individual replicate values): -9.747 and -10.7098
- Gi1 hCB1 (hCB1 [3]; Log [Compound] (M) -4.22186): 75.4915
- GoB hCB1 (hCB1 [3]; Log [Compound] (M) -4.22186): 69.3873
- Gi1 hCB1 (hCB1 [3]; Log [Compound] (M) -4.63927): 68.0453
- GoB hCB1 (hCB1 [3]; Log [Compound] (M) -4.63927): 69.0456
- Gi1 hCB1 (hCB1 [3]; Log [Compound] (M) -5.05788): 65.332
- GoB hCB1 (hCB1 [3]; Log [Compound] (M) -5.05788): 68.5421
- Gi1 hCB1 (hCB1 [3]; Log [Compound] (M) -5.47381): 58.8724
- GoB hCB1 (hCB1 [3]; Log [Compound] (M) -5.47381): 63.2909
- Gi1 hCB1 (hCB1 [3]; Log [Compound] (M) -5.89285): 46.1383
- GoB hCB1 (hCB1 [3]; Log [Compound] (M) -5.89285): 45.7032
- Gi1 hCB1 (hCB1 [3]; Log [Compound] (M) -6.31878): 23.9076
- GoB hCB1 (hCB1 [3]; Log [Compound] (M) -6.31878): 23.3139
- Gi1 hCB1 (hCB1 [3]; Log [Compound] (M) -6.72585): 13.671
- GoB hCB1 (hCB1 [3]; Log [Compound] (M) -6.72585): 15.8509
- Gi1 hCB1 (hCB1 [3]; Log [Compound] (M) -7.14267): 3.866
- GoB hCB1 (hCB1 [3]; Log [Compound] (M) -7.14267): 8.064
- Gi1 hCB1 (hCB1 [3]; Log [Compound] (M) -7.55284): 0.7982
- GoB hCB1 (hCB1 [3]; Log [Compound] (M) -7.55284): 4.971
- Gi1 hCB1 (hCB1 [3]; Log [Compound] (M) -8): -0.466
- GoB hCB1 (hCB1 [3]; Log [Compound] (M) -8): 0.09744
- Gi1 hCB1 (hCB1 [3]; Log [Compound] (M) -8.22186): 0.05819
- GoB hCB1 (hCB1 [3]; Log [Compound] (M) -8.22186): -3.517
- Gi1 hCB1 (hCB1 [3]; Log [Compound] (M) -8.39794): 0.459
- GoB hCB1 (hCB1 [3]; Log [Compound] (M) -8.39794): -0.9816
- Gi1 hCB1 (hCB1 [3]; Log [Compound] (M) -8.68787): -0.3118
- GoB hCB1 (hCB1 [3]; Log [Compound] (M) -8.68787): -2.33
- Gi1 hCB1 (hCB1 [3]; Log [Compound] (M) -9.15521): 0.7365
- GoB hCB1 (hCB1 [3]; Log [Compound] (M) -9.15521): -2.906
- Gi1 hCB1 (hCB1 [3]; Log [Compound] (M) -9.61989): 0.5515
- GoB hCB1 (hCB1 [3]; Log [Compound] (M) -9.61989): -0.9276
- Gi1 hCB1 (hCB1 [3]; Log [Compound] (M) -10.0969): 1.1836
- GoB hCB1 (hCB1 [3]; Log [Compound] (M) -10.0969): -3.176
- Gi1 hCB1 (hCB1 [3]; Log [Compound] (M) -10.5529): 0.2124
- GoB hCB1 (hCB1 [3]; Log [Compound] (M) -10.5529): -1.989
- Gi1 hCB1 (hCB1 [3]; Log [Compound] (M) -11.0177): 0.3974
- GoB hCB1 (hCB1 [3]; Log [Compound] (M) -11.0177): -1.521
- Gi1 hCB1 (hCB1 [3]; Log [Compound] (M) -11.4949): 0.1507
- GoB hCB1 (hCB1 [3]; Log [Compound] (M) -11.4949): -1.827
- Gi1 hCB1 (hCB1 [3]; Log [Compound] (M) -11.9208): -0.03431
- GoB hCB1 (hCB1 [3]; Log [Compound] (M) -11.9208): 0.2953
- Gi1 hCB1 (hCB1 [3]; Log [Compound] (M) -12.3979): -0.06514
- GoB hCB1 (hCB1 [3]; Log [Compound] (M) -12.3979): -1.179
- Gi1 hCB1 (hCB1 [3]; Log [Compound] (M) -12.8861): -0.466
- GoB hCB1 (hCB1 [3]; Log [Compound] (M) -12.8861): -2.798
- Gi1 hCB1 (hCB1 [3]; Log [Compound] (M) -13): -0.8976 and -0.03431
- GoB hCB1 (hCB1 [3]; Log [Compound] (M) -13): -1.143 and -0.8017
- pEC50 [95% CI] (hCB1 [3]; hCB1 Gi1): 6.1 [6.0 – 6.1]
- pEC50 [95% CI] (hCB1 [3]; hCB1 GoB): 6.2 [6.1 – 6.2]
- pEC50 [95% CI] (hCB1 [3]; hCB1 Gz): 6.0 [5.5 – 6.4]
- EC50 (hCB1 [3]; hCB1 Gi1): 849 nM
- EC50 (hCB1 [3]; hCB1 GoB): 711 nM
- EC50 (hCB1 [3]; hCB1 Gz): 1120 nM
- Emax (hCB1 [3]; read-out: Emax [95% CI], hCB1 Gi1): 73%
- Emax (hCB1 [3]; read-out: Emax [95% CI], hCB1 GoB): 74%
- Emax (hCB1 [3]; read-out: Emax [95% CI], hCB1 Gz): 130%
- Ki (CB1 (rCB1) [4]): 794 nM
- LLE (lipophilic ligand efficiency) (CB1 (rCB1) [4]; LLE = pIC50 − clogP): 3.1
- binding free energy ΔG (CB1 (rCB1) [4]; from measured Ki): 8.4 kcal/mol
- LE (ligand efficiency) (CB1 (rCB1) [4]; from rCB1 affinity): 0.32
- radioligand binding remaining, competition curve (Figure2e), replicate values (CB1 (rCB1) [4]; log[drug] -3.643): 5.353 and 8.4728 and 6.119
- radioligand binding remaining, competition curve (Figure2e), replicate values (CB1 (rCB1) [4]; log[drug] -4.35655): 7.365 and 2.197 and 0.3487
- radioligand binding remaining, competition curve (Figure2e), replicate values (CB1 (rCB1) [4]; log[drug] -5.07): 21.0991 and 15.6904 and 16.8933
- radioligand binding remaining, competition curve (Figure2e), replicate values (CB1 (rCB1) [4]; log[drug] -5.783): 52.9233 and 50.4184 and 37.5523
- radioligand binding remaining, competition curve (Figure2e), replicate values (CB1 (rCB1) [4]; log[drug] -6.496): 81.1314 and 84.728 and 72.9079
- radioligand binding remaining, competition curve (Figure2e), replicate values (CB1 (rCB1) [4]; log[drug] -7.21): 91.0402 and 102.441 and 95.6067
- radioligand binding remaining, competition curve (Figure2e), replicate values (CB1 (rCB1) [4]; log[drug] -7.923): 92.6538 and 100.244 and 104.603
- radioligand binding remaining, competition curve (Figure2e), replicate values (CB1 (rCB1) [4]; log[drug] -8.636): 97.1716 and 91.2657
- pKi [95% CI] (CB1 (rCB1) [4]; rCB1): 6.14 [6.01 –6.26]

Source: PMC11882969 (Nature Communications, 2025)
